One test deals with T1, human FXa (Homo sapiens, UniProt P00742).
T1 construct: purchased Hyphen BioMed, Paris, France
Put plainly: Inhibition of FXa in vitro (chromogenic substrate CS-11(22)). Format: biochemical. The following applies: for IC50: chromogenic substrate, 37 °C, pH 7.4; for Ki: Km = 2.4. Here is the method:
The inhibition of FXa was measured using human FXa (Hyphen BioMed, Paris, France) and chromogenic substrate CS-11(22) (Hyphen BioMed, Paris, France) in 384-well microtiter plates at room temperature. […] 2 μL of FXa (56.8 nM), 16 μL of Tris buffer (adjust to pH 7.4 with HCl containing 0.3 M NaCl and 50 mM Tris) and 3 μL of test compound were added to the well, respectively. The negative control was composed of the same mixed solutions except replacing test compound with DMSO. […] After incubated at 37 °C for 5 min, 8 μL of FXa substrate solution (3.5 mM) was added and then incubated at 37 °C for 25 min. The FXa activity was measured at 405 nm using a SpectraMax M5 (Molecular Devices, Sunnyvale, CA, USA). The IC50 was calculated by the software named SPSS (IBM, North Castle, NY, USA) and the Probit function in it.

A further test deals with T2, human FIIa (Homo sapiens, UniProt P00734).
T2 construct: purchased Hyphen BioMed, Paris, France
The experiment in a line: Thrombin inhibition in vitro (chromogenic substrate CS-01(38)). Format: biochemical. The settings on record: tested 10 μM to 100 μM. The method, then:
The inhibition of thrombin was measured using human FIIa (Hyphen BioMed, Paris, France) and chromogenic substrate CS-01(38) (Hyphen BioMed, Paris, France) in 384-well microtiter plates at room temperature. […] 2 μL of FIIa (3 NIH/mL), 20 μL of Tris buffer (adjust to pH 7.4 with HCl) containing 0.3 M NaCl and 50 mM Tris and 2 μL of test compound were added to the well, respectively. The negative control was composed of the same mixed solutions except replacing test compound with DMSO. The positive control was composed of the same mixed solutions except replacing test compound with Rivaroxaban. After incubated at 37 °C for 5 min, 3 μL of FIIa substrate solution (4 mM) was added and then incubated at 37 °C for 25 min. The FIIa activity was measured at 405 nm using a SpectraMax M5 (Molecular Devices).

In a further test the test system is human plasma. Put plainly: Prothrombin time (PT) assay in human plasma. The class given is biochemical. The settings on record: concentration doubling prothrombin time. The method, then: (§1) A commercially available automatic coagulometer (Steellex Science Instrument Co., Ltd., Beijing, China) was employed to measure PT. The clotting times were also measured using the instrument itself, in accordance with the manufacturer’s instructions. Increasing concentrations of inhibitor or solvent were added to rat (Sprague-Dawley rats, Shanchuanhong Experimental Animals Co., Ltd., Tianjin, China) and human plasma and incubated for 3 min at 37 °C. Prothrombin time (PT) was determined by automatic coagulometer.

For another test, the system named is FXa. The following applies: Figure 4, design basis; no reference given; cited from earlier work.
The next test relates to thrombin. Set-up: method as in PMID 16305517. The following applies: read-out: selectivity against thrombin (IC50); cited from earlier work.
The next test deals with rat plasma. The experiment in a line: Prothrombin time (PT) assay in rat plasma. The class given is biochemical. The settings on record: concentration doubling prothrombin time. Here is the method: as §1

The values below come from paper PMC6274369, “Novel Anthranilamide-Based FXa Inhibitors: Drug Design, Synthesis and Biological Evaluation” (Molecules, 2016).

For orientation: IC50 means the concentration that gives 50% inhibition. As a reminder, the Ki is the dissociation constant of the complex between target and ligand, obtained from inhibition or displacement. The low end stands for higher affinity, the high end for lower affinity.

Molecules are shown by their SMILES.

T1 sequence (P00742 235-488 limits assumed): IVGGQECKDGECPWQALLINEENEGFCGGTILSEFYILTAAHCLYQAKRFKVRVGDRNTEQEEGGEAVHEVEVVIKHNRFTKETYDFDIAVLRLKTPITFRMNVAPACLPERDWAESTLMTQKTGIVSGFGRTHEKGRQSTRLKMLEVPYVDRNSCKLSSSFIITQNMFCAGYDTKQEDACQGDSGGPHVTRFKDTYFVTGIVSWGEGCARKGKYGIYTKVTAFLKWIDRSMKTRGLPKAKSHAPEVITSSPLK
T1 sequence (P00742 41-179 partner limits assumed): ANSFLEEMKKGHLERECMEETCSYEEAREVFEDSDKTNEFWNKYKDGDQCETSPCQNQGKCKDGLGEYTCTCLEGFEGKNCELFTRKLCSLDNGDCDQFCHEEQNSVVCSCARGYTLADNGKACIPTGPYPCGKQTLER

`Cc1cccc(C(=O)Nc2ccc(-n3ccccc3=O)cc2)c1NC(=O)c1ccc(F)cc1` [Compound 1k, 2-(4-Fluorobenzamido)-3-methyl-N-(4-(2-oxopyridin-1(2H)-yl)phenyl)benzamide] registered an IC50 against human FXa of more than 1000 nM.
On the same count and under the same terms, under `O=C(Nc1ccc(Cl)cc1C(=O)Nc1ccc(-n2ccccc2=O)cc1)c1ccc(F)cc1` [Compound 1e, 5-Chloro-2-(4-fluorobenzamido)-N-(4-(2-oxopyridin-1(2H)-yl)phenyl)benzamide] stands more than 1000 nM; under `Cc1cccc(C(=O)Nc2ccc(N3CCOCC3=O)cc2)c1NC(=O)c1ccc(Cl)s1` [Compound 1v, 5-Chloro-N-(2-methyl-6-((4-(3-oxomorpholino)phenyl)carbamoyl)phenyl)thiophene-2-carboxamide], more than 1000 nM.
Take `O=C(Nc1ccccc1C(=O)Nc1ccc(-n2ccccc2=O)cc1)c1ccc(Cl)s1` [Compound 1a, 5-Chloro-N-(2-((4-(2-oxopyridin-1(2H)-yl)phenyl)carbamoyl)phenyl)thiophene-2-carboxamide]: at human FIIa, the IC50 was more than 10000 nM. For the same molecule, at human FXa, the affinity corresponds to a Ki of 22 nM and the IC50 was determined as 30.2 nM.
Molecule `O=C(Nc1ccccc1C(=O)Nc1ccc(N2CCOCC2=O)cc1)c1ccc(Cl)cc1` [Compound 1o, 2-(4-Chlorobenzamido)-N-(4-(3-oxomorpholino)phenyl)benzamide] came in with an IC50 against human FXa of 440 nM.
As to `O=C(NC[C@H]1CN(c2ccc(N3CCOCC3=O)cc2)C(=O)O1)c1ccc(Cl)s1` [Rivaroxaban, reference compound], in the test with human plasma, the “2 × PT (μM) (Human)” value was 0.2 µM. Also, the IC50 with FXa is […]; in the test with thrombin, more than 6900 nM. Besides, the “2 × PT (μM) (Rat)” value in the test on rat plasma came to 0.3 µM.
Regarding `Cc1ccc(NC(=O)c2ccc(Cl)cc2)c(C(=O)Nc2ccc(N3CCOCC3=O)cc2)c1` [Compound 1u, 2-(4-Chlorobenzamido)-5-methyl-N-(4-(3-oxomorpholino)phenyl)benzamide], the 50% inhibitory concentration (IC50) against human FXa is more than 1000 nM.
Same read-out and setting: under `O=C(Nc1ccc(Cl)cc1C(=O)Nc1ccc(-n2ccccc2=O)cc1)c1ccc(Cl)s1` [Compound 1d, 5-Chloro-N-(4-chloro-2-((4-(2-oxopyridin-1(2H)-yl)phenyl)carbamoyl)phenyl)thiophene-2-carboxamide] stands 430 nM.
`COc1ccc(NC(=O)c2ccc(C(=N)N(C)C)cc2)c(C(=O)Nc2ccc(Cl)cn2)c1` [Betrixaban]: the IC50 in the test on FXa is […].
In turn, `Cc1cccc(C(=O)Nc2ccc(N3CCOCC3=O)cc2)c1NC(=O)c1ccc(F)cc1` [Compound 1w, 2-(4-Fluorobenzamido)-3-methyl-N-(4-(3-oxomorpholino)phenyl)benzamide] yielded an IC50 against human FXa of more than 1000 nM.
In the case of `COc1ccc(C(=O)Nc2cccc(O)c2NC(=O)c2ccc(N3CCCN(C)CC3)cc2)cc1` [Darexaban], the IC50 in the test with FXa was 54.6 nM.
As for `O=C(Nc1ccc(Cl)cc1C(=O)Nc1ccc(N2CCOCC2=O)cc1)c1ccc(F)cc1` [Compound 1q, 5-Chloro-2-(4-fluorobenzamido)-N-(4-(3-oxomorpholino)phenyl)benzamide], the concentration for half-maximal inhibition (IC50) against human FXa is more than 1000 nM.
The same measure, in the same setting: under `O=C(Nc1ccc(Cl)cc1C(=O)Nc1ccc(N2CCOCC2=O)cc1)c1ccc(Cl)cc1` [Compound 1r, 5-Chloro-2-(4-chlorobenzamido)-N-(4-(3-oxomorpholino)phenyl)benzamide] stands 951 nM; under `O=C(Nc1ccc(Cl)cc1C(=O)Nc1ccc(-n2ccccc2=O)cc1)c1ccc(Cl)cc1` [Compound 1f, 5-Chloro-2-(4-chlorobenzamido)-N-(4-(2-oxopyridin-1(2H)-yl)phenyl)benzamide], 570 nM.
Still for that read-out and setting: under `Cc1ccc(NC(=O)c2ccc(F)cc2)c(C(=O)Nc2ccc(N3CCOCC3=O)cc2)c1` [Compound 1t, 2-(4-Fluorobenzamido)-5-methyl-N-(4-(3-oxomorpholino)phenyl)benzamide] stands more than 1000 nM.
For the molecule `Cc1ccc(NC(=O)c2ccc(Cl)cc2)c(C(=O)Nc2ccc(-n3ccccc3=O)cc2)c1` [Compound 1i, 2-(4-Chlorobenzamido)-5-methyl-N-(4-(2-oxopyridin-1(2H)-yl)phenyl)benzamide], the midpoint of inhibition on human FXa, the IC50, lay at 511 nM.
As for `Cc1ccc(NC(=O)c2ccc(Cl)s2)c(C(=O)Nc2ccc(-n3ccccc3=O)cc2)c1` [Compound 1g, 5-Chloro-N-(4-methyl-2-((4-(2-oxopyridin-1(2H)-yl)phenyl)carbamoyl)phenyl)thiophene-2-carboxami-de], the IC50 against human FIIa was more than 10000 nM; against human FXa, 25 nM. Besides, the “2 × PT (μM) (Human)” value with human plasma turned out to be 12.8 µM. This molecule came in with a Ki at human FXa of 16.4 nM. Also, the “2 × PT (μM) (Rat)” value with rat plasma is 19.7 µM.
As for `Cc1cccc(C(=O)Nc2ccc(-n3ccccc3=O)cc2)c1NC(=O)c1ccc(Cl)cc1` [Compound 1l, 2-(4-Chlorobenzamido)-3-methyl-N-(4-(2-oxopyridin-1(2H)-yl)phenyl)benzamide], the IC50 against human FXa is more than 1000 nM.
Same read-out and setting: then `O=C(Nc1ccccc1C(=O)Nc1ccc(-n2ccccc2=O)cc1)c1ccc(F)cc1` [Compound 1b, 2-(4-Fluorobenzamido)-N-(4-(2-oxopyridin-1(2H)-yl)phenyl)benzamide], with more than 1000 nM; and `O=C(Nc1ccccc1C(=O)Nc1ccc(N2CCOCC2=O)cc1)c1ccc(F)cc1` [Compound 1n, 2-(4-Fluorobenzamido)-N-(4-(3-oxomorpholino)phenyl)benzamide], with more than 1000 nM; and `O=C(Nc1ccccc1C(=O)Nc1ccc(-n2ccccc2=O)cc1)c1ccc(Cl)cc1` [Compound 1c, 2-(4-Chlorobenzamido)-N-(4-(2-oxopyridin-1(2H)-yl)phenyl)benzamide], with 197 nM.
On the same count and under the same terms, then `Cc1cccc(C(=O)Nc2ccc(N3CCOCC3=O)cc2)c1NC(=O)c1ccc(Cl)cc1` [Compound 1x, 2-(4-Chlorobenzamido)-3-methyl-N-(4-(3-oxomorpholino)phenyl)benzamide], with more than 1000 nM.
Still for that read-out and setting: under `O=C(Nc1ccc(Cl)cc1C(=O)Nc1ccc(N2CCOCC2=O)cc1)c1ccc(Cl)s1` [Compound 1p, 5-Chloro-N-(4-chloro-2-((4-(3-oxomorpholino)phenyl)carbamoyl)phenyl)thiophene-2-carboxamide] stands 111 nM.
In the case of `Cc1ccc(NC(=O)c2ccc(Cl)s2)c(C(=O)Nc2ccc(N3CCOCC3=O)cc2)c1` [Compound 1s, 5-Chloro-N-(4-methyl-2-((4-(3-oxomorpholino)phenyl)carbamoyl)phenyl)thiophene-2-carboxamide], on human FIIa, the IC50 is more than 10000 nM. The “2 × PT (μM) (Human)” value in the test with human plasma amounted to 10.4 µM. On human FXa, this molecule displayed a Ki of 54.4 nM and an IC50 of 71 nM. Besides, the “2 × PT (μM) (Rat)” value with rat plasma is 24.2 µM.
Consider `O=C(Nc1ccccc1C(=O)Nc1ccc(N2CCOCC2=O)cc1)c1ccc(Cl)s1` [Compound 1m, 5-Chloro-N-(2-((4-(3-oxomorpholino)phenyl)carbamoyl)phenyl)thiophene-2-carboxamide], for which the midpoint of inhibition against human FXa, the IC50, lay at 317 nM.
Still for that read-out and setting: under `Cc1cccc(C(=O)Nc2ccc(-n3ccccc3=O)cc2)c1NC(=O)c1ccc(Cl)s1` [Compound 1j, 5-Chloro-N-(2-methyl-6-((4-(2-oxopyridin-1(2H)-yl)phenyl)carbamoyl)phenyl)thiophene-2-carboxami-de] stands more than 1000 nM.
The same measure, in the same setting: under `Cc1ccc(NC(=O)c2ccc(F)cc2)c(C(=O)Nc2ccc(-n3ccccc3=O)cc2)c1` [Compound 1h, 2-(4-Fluorobenzamido)-5-methyl-N-(4-(2-oxopyridin-1(2H)-yl)phenyl)benzamide] stands more than 1000 nM.
